Experimental data from US20260224536A1, “ARYL HETEROCYCLIC KV1.3 INHIBITOR, PREPARATION METHOD THEREFOR, AND USE THEREOF” (SHANGHAI SHENSHI WISE TECHNOLOGY CO., LTD., priority 2022, published 2026).

Tests used:
Format in all cases: cell-based
Kv1.5 potassium channel = Kv1.5 potassium channel (Homo sapiens, UniProt P22460); assay: Whole-cell patch-clamp assay for inhibitory activity against Kv1.5 (steady state current); details: HEK293 cells stably expressing Kv1.5, patch-clamp, read-out: IC50 for inhibition of Kv1.5
Method: (§1) HEK293 cells stably expressing Kv1.X (Kv1.1, Kv1.2, Kv1.3, Kv1.4, Kv1.5) potassium channels were cultured in DMEM medium containing 10% fetal bovine serum and 800 μg/mL G418 (geneticin) at a culture temperature of 37° C. and a carbon dioxide concentration of 5%.
(§2) The extracellular fluid contained […], 3.5 mM KCl, 1 mM MgCl2·6H2O, 2 mM CaCl2·2H2O, 10 mM D-glucose, 10 mM HEPES, 1.25 mM NaH2PO4·2H2O, and the pH was adjusted to 7.4 with NaOH. The intracellular fluid contained 20 mM KCl, 115 mM K-Aspartic, 1 mM MgCl2·6H2O, 5 mM EGTA, 10 mM HEPES, 2 mM Na2-ATP, and the pH was adjusted to 7.2 with KOH.
(§3) The voltage stimulation protocol for recording whole-cell Kv1.X potassium currents via patch-clamp was as follows. After formation of a whole-cell seal, the cell membrane voltage was clamped at −80 mV, and then stepped to +40 mV for 500 ms. […] Then, a slow capacitance compensation was given, and the membrane capacitance and series resistance were recorded. […]
(§4) Once the whole-cell recorded Kv1.X current stabilized, drug administration was started. […] For each cell, the current detected in the compound-free extracellular liquid was used as its own control group. […]
(§5) and then the inhibition rate corresponding to each drug concentration was calculated
(§6) Subsequently, the mean, standard deviation (SD), and standard error (SE) were calculated for the inhibition rate corresponding to each concentration. […]

Kv1.4 potassium channel = Kv1.4 potassium channel (Homo sapiens, UniProt P22459); assay: Whole-cell patch-clamp assay for inhibitory activity against Kv1.4 (peak current); details: HEK293 cells stably expressing Kv1.4, patch-clamp, read-out: IC50 for inhibition of Kv1.4
Method: as §1, §2, §3, §4, §5, §6

Kv1.1 potassium channel = biological target: T1, Kv1.1 potassium channel (Homo sapiens, UniProt Q09470); assay: Whole-cell patch-clamp assay for inhibitory activity against Kv1.1 (steady state current); details: HEK293 cells stably expressing Kv1.1, patch-clamp, read-out: IC50 for inhibition of Kv1.1
T1 construct: expressed in transfected cells
Method: as §1, §2, §3, §4, §5, §6

hERG potassium channel = biological target: T2, hERG potassium channel (Homo sapiens, UniProt Q12809); assay: Whole-cell voltage clamp assay for inhibitory activity against hERG; details: CHO cells stably expressing hERG, peak tail current at -50 mV, read-out: IC50 for inhibition of hERG
T2 construct: expressed in transfected cells
Method: CHO cells stably expressing hERG were cultured in 35 mm diameter cell culture dishes at 37° C. in a 5% CO2 incubator. The cells were passaged at a ratio of 1:5 every 48 h. The culture medium recipe was as follows: 90% F12 (Invitrogen), 10% fetal bovine serum (Gibco), 100 µg/mL G418 (Invitrogen), and 100 µg/mL Hygromycin B (Invitrogen). On the day of the test, the cell culture fluid was aspirated, and the cells were rinsed once with the extracellular fluid. […] The digestion solution was then aspirated, and the cells were resuspended with the extracellular fluid and transferred to an experimental dish for electrophysiological recording for later use. hERG potassium channel currents were recorded at room temperature by the whole-cell voltage clamp technique in the CHO cells stably expressing hERG potassium channels. Glass microelectrodes were formed by pulling a glass electrode blank (BF150-86-10, Sutter) using a puller. The tip resistance after perfusion with the electrode internal solution was about 2-5 MΩ. […] The clamping voltage and data recording were controlled and recorded by a computer with the pClamp software, with a sampling frequency of 10 kHz and a filtering frequency of 2 kHz. […] This voltage stimulation was applied every 5 s, and after the hERG potassium currents were determined to be stable (for 1 min), the drug administration process was started. […]

Kv1.2 potassium channel = biological target: T3, Kv1.2 potassium channel (Homo sapiens, UniProt P16389); assay: Whole-cell patch-clamp assay for inhibitory activity against Kv1.2 (steady state current); details: HEK293 cells stably expressing Kv1.2, patch-clamp, read-out: IC50 for inhibition of Kv1.2
T3 construct: expressed in transfected cells
Method: as §1, §2, §3, §4, §5, §6

Kv1.3 potassium channel = Kv1.3 potassium channel (Homo sapiens, UniProt P22001); assay: Whole-cell patch-clamp assay for inhibitory activity against Kv1.3 (peak current); details: HEK293 cells stably expressing Kv1.3, patch-clamp
Method in brief: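 Whole-cell currents evoked by a step from −80 mV holding to +40 mV for 500 ms at room temperature. Concentrations perfused cumulatively, low to high, each for 5 min or until steady state. Peak current normalised to each cell's compound-free control; IC50 from nonlinear fit, ≥3 cells per concentration.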

T3 sequence (P16389 whole entry): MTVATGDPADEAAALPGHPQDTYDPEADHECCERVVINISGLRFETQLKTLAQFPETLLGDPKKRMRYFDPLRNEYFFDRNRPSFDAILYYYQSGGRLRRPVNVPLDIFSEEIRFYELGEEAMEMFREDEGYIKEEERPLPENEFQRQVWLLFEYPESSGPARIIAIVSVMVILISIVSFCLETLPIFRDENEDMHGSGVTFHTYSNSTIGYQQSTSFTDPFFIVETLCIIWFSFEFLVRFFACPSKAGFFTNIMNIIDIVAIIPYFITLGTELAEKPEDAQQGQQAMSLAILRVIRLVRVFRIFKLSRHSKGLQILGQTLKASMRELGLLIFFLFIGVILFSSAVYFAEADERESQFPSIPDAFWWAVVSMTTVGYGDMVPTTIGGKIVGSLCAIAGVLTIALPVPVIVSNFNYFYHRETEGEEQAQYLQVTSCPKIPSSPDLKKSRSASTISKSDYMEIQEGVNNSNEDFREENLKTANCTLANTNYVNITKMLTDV
T1 sequence (Q09470 whole entry): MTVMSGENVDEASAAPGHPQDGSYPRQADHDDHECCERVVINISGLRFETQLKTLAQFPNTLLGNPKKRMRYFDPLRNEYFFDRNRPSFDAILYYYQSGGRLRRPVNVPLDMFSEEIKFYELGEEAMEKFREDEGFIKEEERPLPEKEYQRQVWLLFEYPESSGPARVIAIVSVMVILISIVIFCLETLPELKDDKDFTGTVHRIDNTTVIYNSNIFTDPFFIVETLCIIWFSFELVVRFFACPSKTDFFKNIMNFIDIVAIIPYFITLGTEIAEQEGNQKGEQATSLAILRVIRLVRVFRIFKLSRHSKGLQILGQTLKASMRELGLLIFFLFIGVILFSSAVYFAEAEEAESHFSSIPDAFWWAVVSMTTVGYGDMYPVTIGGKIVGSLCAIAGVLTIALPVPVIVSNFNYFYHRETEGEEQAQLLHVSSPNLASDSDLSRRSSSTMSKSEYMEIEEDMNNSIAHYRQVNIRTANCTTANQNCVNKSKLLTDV
Chain of Kv1.5 potassium channel (P22460 whole entry): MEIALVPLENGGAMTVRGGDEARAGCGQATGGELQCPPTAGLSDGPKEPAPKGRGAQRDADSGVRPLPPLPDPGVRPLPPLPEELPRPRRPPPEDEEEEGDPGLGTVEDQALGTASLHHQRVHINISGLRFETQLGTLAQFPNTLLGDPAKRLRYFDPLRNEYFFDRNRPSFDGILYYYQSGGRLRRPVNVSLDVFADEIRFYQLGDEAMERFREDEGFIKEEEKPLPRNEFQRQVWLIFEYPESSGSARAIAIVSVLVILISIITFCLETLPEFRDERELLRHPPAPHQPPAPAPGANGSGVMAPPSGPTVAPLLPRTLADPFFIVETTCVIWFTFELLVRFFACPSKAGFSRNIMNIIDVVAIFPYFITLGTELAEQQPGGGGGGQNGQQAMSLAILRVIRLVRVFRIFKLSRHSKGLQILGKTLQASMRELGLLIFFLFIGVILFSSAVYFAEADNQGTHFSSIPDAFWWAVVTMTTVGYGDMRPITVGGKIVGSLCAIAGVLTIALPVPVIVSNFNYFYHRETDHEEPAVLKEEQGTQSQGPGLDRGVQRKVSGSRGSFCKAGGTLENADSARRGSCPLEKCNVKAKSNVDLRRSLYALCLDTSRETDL
T2 sequence (Q12809 whole entry): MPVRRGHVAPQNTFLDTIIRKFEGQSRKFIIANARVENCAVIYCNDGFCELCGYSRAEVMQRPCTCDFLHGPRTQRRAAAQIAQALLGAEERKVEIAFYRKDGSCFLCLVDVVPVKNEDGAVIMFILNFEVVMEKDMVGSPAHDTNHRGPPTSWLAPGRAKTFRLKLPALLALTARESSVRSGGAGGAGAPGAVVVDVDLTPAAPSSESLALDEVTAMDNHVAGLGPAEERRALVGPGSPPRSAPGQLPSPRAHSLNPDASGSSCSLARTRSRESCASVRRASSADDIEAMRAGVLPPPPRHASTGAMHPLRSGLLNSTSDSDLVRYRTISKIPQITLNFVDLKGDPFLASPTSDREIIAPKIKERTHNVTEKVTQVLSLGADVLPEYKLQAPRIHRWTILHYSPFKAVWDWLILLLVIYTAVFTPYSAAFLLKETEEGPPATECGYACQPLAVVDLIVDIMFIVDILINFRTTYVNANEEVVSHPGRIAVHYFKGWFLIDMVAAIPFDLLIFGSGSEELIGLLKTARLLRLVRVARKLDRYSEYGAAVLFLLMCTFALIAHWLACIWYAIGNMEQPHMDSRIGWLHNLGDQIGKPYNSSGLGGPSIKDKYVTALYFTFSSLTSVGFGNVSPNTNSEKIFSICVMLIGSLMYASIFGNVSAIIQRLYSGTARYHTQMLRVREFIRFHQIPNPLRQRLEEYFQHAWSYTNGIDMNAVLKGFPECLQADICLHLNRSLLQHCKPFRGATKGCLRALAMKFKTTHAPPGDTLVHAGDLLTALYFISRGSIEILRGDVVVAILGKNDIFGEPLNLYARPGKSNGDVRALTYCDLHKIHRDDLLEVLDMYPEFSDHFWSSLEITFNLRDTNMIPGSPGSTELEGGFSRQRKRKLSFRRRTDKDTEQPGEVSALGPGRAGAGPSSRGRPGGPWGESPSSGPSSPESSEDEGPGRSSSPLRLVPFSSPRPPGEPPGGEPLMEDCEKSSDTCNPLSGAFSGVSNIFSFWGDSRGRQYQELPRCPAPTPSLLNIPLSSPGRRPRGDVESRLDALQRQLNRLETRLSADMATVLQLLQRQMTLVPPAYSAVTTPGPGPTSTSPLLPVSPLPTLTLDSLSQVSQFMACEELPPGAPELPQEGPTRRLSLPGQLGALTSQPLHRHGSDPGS
Chain of Kv1.4 potassium channel (P22459 whole entry): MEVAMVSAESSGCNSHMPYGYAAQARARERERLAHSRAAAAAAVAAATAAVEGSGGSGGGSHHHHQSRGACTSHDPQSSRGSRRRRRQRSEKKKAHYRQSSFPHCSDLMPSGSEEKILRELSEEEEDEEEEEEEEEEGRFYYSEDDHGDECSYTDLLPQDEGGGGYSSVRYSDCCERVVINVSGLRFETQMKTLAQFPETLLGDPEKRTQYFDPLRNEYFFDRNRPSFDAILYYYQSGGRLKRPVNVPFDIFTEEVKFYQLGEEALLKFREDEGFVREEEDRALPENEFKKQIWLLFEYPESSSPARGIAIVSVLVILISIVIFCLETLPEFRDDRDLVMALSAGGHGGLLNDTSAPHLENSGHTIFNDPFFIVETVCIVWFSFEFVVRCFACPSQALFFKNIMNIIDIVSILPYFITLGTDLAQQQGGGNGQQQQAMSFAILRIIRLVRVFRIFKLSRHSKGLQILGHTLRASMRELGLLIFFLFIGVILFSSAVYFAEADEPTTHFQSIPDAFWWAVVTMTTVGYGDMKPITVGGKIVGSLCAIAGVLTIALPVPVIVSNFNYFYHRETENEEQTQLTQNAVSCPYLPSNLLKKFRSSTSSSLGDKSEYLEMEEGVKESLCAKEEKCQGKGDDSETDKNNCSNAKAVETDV
Chain of Kv1.3 potassium channel (P22001 whole entry, the tested form may be a part): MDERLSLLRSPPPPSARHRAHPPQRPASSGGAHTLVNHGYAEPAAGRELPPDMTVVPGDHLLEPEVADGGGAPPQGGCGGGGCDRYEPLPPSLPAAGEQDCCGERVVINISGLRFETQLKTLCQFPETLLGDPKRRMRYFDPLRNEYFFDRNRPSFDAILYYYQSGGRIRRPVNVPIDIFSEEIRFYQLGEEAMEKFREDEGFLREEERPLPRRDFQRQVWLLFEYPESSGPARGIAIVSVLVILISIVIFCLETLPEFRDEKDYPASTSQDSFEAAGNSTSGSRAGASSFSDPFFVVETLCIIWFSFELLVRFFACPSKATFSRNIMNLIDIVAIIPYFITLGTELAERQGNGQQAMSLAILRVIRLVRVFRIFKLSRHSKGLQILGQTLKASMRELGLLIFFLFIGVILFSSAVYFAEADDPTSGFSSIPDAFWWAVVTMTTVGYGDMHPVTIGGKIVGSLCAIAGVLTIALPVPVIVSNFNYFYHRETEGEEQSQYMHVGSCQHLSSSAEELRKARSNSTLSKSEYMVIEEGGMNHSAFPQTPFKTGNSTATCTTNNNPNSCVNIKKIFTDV

OCc1nnc2n1C[C@H](c1c(O)ccc(Cl)c1Cl)C2 [Example 2, (S)-3,4-dichloro-2-(3-(hydroxymethyl)-6,7-dihydro-5H-pyrrolo[2,1-c][1,2,4]triazol-6-yl)phenol]
IC50 (Kv1.5 potassium channel): > 100 µM | IC50 (Kv1.4 potassium channel): > 30 µM | IC50 (Kv1.1 potassium channel): > 100 µM | IC50 (hERG potassium channel): > 30 µM | IC50 (Kv1.2 potassium channel): > 100 µM | IC50 (Kv1.3 potassium channel): 0.0281 µM

Oc1ccc(Cl)c(Cl)c1[C@@H]1Cc2nnc([C@@H]3CCOC3)n2C1 [Example 54, 3,4-Dichloro-2-((S)-3-((S)-tetrahydrofuran-3-yl)-6,7-dihydro-5H-pyrrolo[2,1-c][1,2,4]triazol-6-yl)phenol]
IC50 (Kv1.5 potassium channel): > 100 µM | IC50 (Kv1.4 potassium channel): > 30 µM | IC50 (Kv1.1 potassium channel): > 100 µM | IC50 (hERG potassium channel): > 30 µM | IC50 (Kv1.2 potassium channel): > 100 µM | IC50 (Kv1.3 potassium channel): 0.0077 µM
